According to article PMC7883216 (Peptides, 2021):
Like-named read-outs stand apart in the source and are kept apart here.

Assays:
[1] = Pharmacokinetics of exogenous mouse GIP; assay type: in vivo, female C57Bl/6Jrj mice; settings: for peak intact GIP concentration as % of peak total GIP concentration: in-house RIAs; for increase of iAUC of intact GIP upon co-administration of Val-Pyr: P < 0.0001; for Clearance, corrected for body weight / Apparent volume of distribution corrected for body weight: IV 25 nmol/kg BW, mean ± SE, n = 6-9; for Clearance, corrected for body weight: CL = k*Vd
[2] = in humans; cited from earlier work
[3] = anaesthetized rats; cited from earlier work
[4] = female, C57Bl/6Jrj, mouse, plasma, iv, 25 nmol/kg BW

Molecule: CC[C@H](C)[C@H](NC(=O)[C@H](CO)NC(=O)[C@H](Cc1ccc(O)cc1)NC(=O)[C@H](CC(=O)O)NC(=O)[C@H](CO)NC(=O)[C@@H](NC(=O)[C@H](Cc1ccccc1)NC(=O)[C@@H](NC(=O)CNC(=O)[C@H](CCC(=O)O)NC(=O)[C@H](C)NC(=O)[C@@H](N)Cc1ccc(O)cc1)[C@@H](C)O)[C@@H](C)CC)C(=O)N[C@@H](C)C(=O)N[C@@H](CCSC)C(=O)N[C@@H](CC(=O)O)C(=O)N[C@@H](CCCCN)C(=O)N[C@H](C(=O)N[C@@H](CCCNC(=N)N)C(=O)N[C@@H](CCC(N)=O)C(=O)N[C@@H](CCC(N)=O)C(=O)N[C@@H](CC(=O)O)C(=O)N[C@@H](Cc1ccccc1)C(=O)N[C@H](C(=O)N[C@@H](CC(N)=O)C(=O)N[C@@H](Cc1c[nH]c2ccccc12)C(=O)N[C@@H](CC(C)C)C(=O)N[C@@H](CC(C)C)C(=O)N[C@@H](C)C(=O)N[C@@H](CCC(N)=O)C(=O)N[C@@H](CCCNC(=N)N)C(=O)NCC(=O)N[C@@H](CCCCN)C(=O)N[C@@H](CCCCN)C(=O)N[C@@H](CO)C(=O)N[C@@H](CC(=O)O)C(=O)N[C@@H](Cc1c[nH]c2ccccc12)C(=O)N[C@@H](CCCCN)C(=O)N[C@@H](Cc1c[nH]cn1)C(=O)N[C@@H](CC(N)=O)C(=O)N[C@H](C(=O)N[C@H](C(=O)N[C@@H](CCC(N)=O)C(=O)O)[C@@H](C)O)[C@@H](C)CC)C(C)C)[C@@H](C)CC [GIP(1–42)]
- peak intact GIP concentration as % of peak total GIP concentration ([1]; IP injection 25 nmol/kg BW, with Val-Pyr): 82%
- peak intact GIP concentration as % of peak total GIP concentration ([1]; IP injection 25 nmol/kg BW, without Val-Pyr): 16%
- increase of iAUC of intact GIP upon co-administration of Val-Pyr ([1]; IP injection 25 nmol/kg BW, Fig. 1F): 7.8 fold
- Clearance, corrected for body weight ([1]; Val-Pyr co-administration): 45 ± 4 µL/min/g
- Apparent volume of distribution corrected for body weight ([1]; Val-Pyr co-administration): 0.46 ± 0.03 mL/g
- Clearance, corrected for body weight ([1]; placebo (no Val-Pyr)): 207 ± 16 µL/min/g
- Apparent volume of distribution corrected for body weight ([1]; placebo (no Val-Pyr), Vd = total dose/C0): 0.34 ± 0.1 mL/g
- peak intact GIP concentration as % of peak total GIP concentration ([1]; IV injection 25 nmol/kg BW, with Val-Pyr): 110%
- peak intact GIP concentration as % of peak total GIP concentration ([1]; IV injection 25 nmol/kg BW, without Val-Pyr, mean): 41%
- increase of iAUC of intact GIP upon co-administration of Val-Pyr ([1]; IV injection 25 nmol/kg BW, Fig. 1B): 5.4 fold
- peak intact GIP concentration as % of peak total GIP concentration ([1]; SC injection 25 nmol/kg BW, with Val-Pyr): 82%
- peak intact GIP concentration as % of peak total GIP concentration ([1]; SC injection 25 nmol/kg BW, without Val-Pyr): 14%
- increase of iAUC of intact GIP upon co-administration of Val-Pyr ([1]; SC injection 25 nmol/kg BW, Fig. 1D): 8.1 fold
- half-life [1, 4]: 1.5 min
- tissue uptake dose [1, 4]: 13 ± 1 %ID
- tissue uptake dose ([1]; female, C57Bl/6Jrj, mouse, plasma, sc, 25 nmol/kg BW): 10 ± 1 %ID
- intact GIP levels as % of total GIP plasma concentrations ([1]; following SC and IP GIP administration without DPP-4 inhibitor): approximately 15%
- plasma half-life [2]: approximately 7 min
- plasma half-life [3]: approximately 2 min

Molecule: human GIP(1–42): human GIP(1–42), half-life in humans quoted from ref 11
- plasma half-life [2]: approximately 7 min
